Biological target: SHP2 (Homo sapiens (Human), UniProt Q06124)
Assay: SHP2-catalyzed hydrolysis of p-nitrophenyl phosphate (pNPP)
Format: biochemical
Details: for IC50: pNPP substrate, pH 7.0, 25° C.
Protocol: Libraries 11a-d were screened at ˜5 μM for SHP2 inhibitors without further purification. The ability of the library components to inhibit the SHP2-catalyzed hydrolysis of p-nitrophenyl phosphate (pNPP) was evaluated at pH 7.0 and 25° C. More particularly, the phosphatase activity of SHP2 was assayed using p-nitrophenyl phosphate (pNPP) as a substrate at 25° C. in 50 mM 3,3-dimethylglutarate buffer, pH 7.0, containing 1 mM EDTA with an ionic strength of […] adjusted by NaCl. The libraries were screened in a 96-well format at 5 μM compound concentration. […] The nonenzymatic hydrolysis of pNPP was corrected by measuring the control without the addition of enzyme. The amount of product p-nitrophenol was determined from the absorbance at 405 nm detected by a Spectra MAX340 microplate spectrophotometer (Molecular Devices, Sunnyvale, Calif.) using a molar extinction coefficient of 18,000 M^−1 cm^−1. […] IC50 values for selected resynthesized and purified hits were calculated by fitting the absorbance at 405 nm versus inhibitor concentration to the following equation: AI/A0=IC50/(IC50+[I]) where AI is the absorbance at 405 nm of the sample in the presence of the inhibitor; A0 is the absorbance at 405 nm in the absence of inhibitor; and [I] is the concentration of the inhibitor.

Chain of SHP2 (Q06124 whole entry, looked up): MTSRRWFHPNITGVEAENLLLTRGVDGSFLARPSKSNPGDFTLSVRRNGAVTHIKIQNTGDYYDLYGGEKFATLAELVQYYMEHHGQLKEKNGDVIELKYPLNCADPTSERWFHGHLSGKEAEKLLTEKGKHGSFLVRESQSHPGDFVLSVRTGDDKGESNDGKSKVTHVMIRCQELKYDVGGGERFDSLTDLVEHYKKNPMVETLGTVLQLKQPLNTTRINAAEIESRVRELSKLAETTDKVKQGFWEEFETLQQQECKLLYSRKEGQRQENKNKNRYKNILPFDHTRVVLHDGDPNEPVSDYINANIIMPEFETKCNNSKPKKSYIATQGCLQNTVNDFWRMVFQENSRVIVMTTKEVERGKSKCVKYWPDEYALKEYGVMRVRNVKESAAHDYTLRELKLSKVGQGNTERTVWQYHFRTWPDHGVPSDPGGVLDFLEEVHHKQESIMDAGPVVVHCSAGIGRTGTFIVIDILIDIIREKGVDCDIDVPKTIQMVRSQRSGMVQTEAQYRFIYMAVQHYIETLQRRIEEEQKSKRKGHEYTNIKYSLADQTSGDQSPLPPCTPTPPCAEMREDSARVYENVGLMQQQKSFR

Row | Compound | IC50 [nM] | SHP2 inhibition, in words | IC50 for SHP2, times higher than that of 11a-1
1 | Cn1c(-c2cccc(NC(=O)CCC(=O)O)c2)c(I)c2cc(C(=O)O)c(O)cc21 [10c, 2-(3-(3-carboxypropanamido)phenyl)-6-hydroxy-3-iodo-1-methyl-1H-indole-5-carboxylic acid] | 56000 |  | 
2 | Cn1c(-c2cccc(NC(=O)C(=O)Nc3ccc(-c4ccccc4)cc3)c2)c(I)c2cc(C(=O)O)c(O)cc21 [11a-2, 2-(3-(2-([1,1′-biphenyl]-4-ylamino)-2-oxoacetamido)phenyl)-6-hydroxy-3-iodo-1-methyl-1H-indole-5-carboxylic acid] | 620 ± 50 | strongly inhibited | 
3 | Cn1c(-c2cccc(NC(=O)C(=O)Nc3ccc(OCc4ccccc4)c(Cl)c3)c2)c(I)c2cc(C(=O)O)c(O)cc21 [11a-3, 2-(3-(2-((4-(benzyloxy)-3-chlorophenyl)amino)-2-oxoacetamido)phenyl)-6-hydroxy-3-iodo-1-methyl-1H-indole-5-carboxylic acid] | 660 ± 30 | submicromolar | 
4 | Cn1c(-c2cccc(NC(=O)C(=O)Nc3nc4ccc(Br)cc4s3)c2)c(I)c2cc(C(=O)O)c(O)cc21 [11a-4, 2-(3-(2-((6-bromobenzo[d]thiazol-2-yl)amino)-2-oxoacetamido)phenyl)-6-hydroxy-3-iodo-1-methyl-1H-indole-5-carboxylic acid] | 760 ± 110 |  | 
5 | Cn1c(-c2cccc(NC(=O)C(=O)Nc3cccc(-c4ccccc4)c3)c2)c(I)c2cc(C(=O)O)c(O)cc21 [11a-5, 2-(3-(2-([1,1′-biphenyl]-3-ylamino)-2-oxoacetamido)phenyl)-6-hydroxy-3-iodo-1-methyl-1H-indole-5-carboxylic acid] | 770 ± 150 | strongly inhibited | 
6 | Cn1c(-c2cccc(NC(=O)C(=O)Nc3cccc(OCc4ccccc4)c3)c2)c(I)c2cc(C(=O)O)c(O)cc21 [11a-6, 2-(3-(2-((3-(benzyloxy)phenyl)amino)-2-oxoacetamido)phenyl)-6-hydroxy-3-iodo-1-methyl-1H-indole-5-carboxylic acid] | 860 ± 140 | submicromolar | 
7 | Cn1c(-c2cccc(NC(=O)C(=O)N3CCc4cc(Br)ccc43)c2)c(I)c2cc(C(=O)O)c(O)cc21 [11a-7, 2-(3-(2-(5-bromoindolin-1-yl)-2-oxoacetamido)phenyl)-6-hydroxy-3-iodo-1-methyl-1H-indole-5-carboxylic acid] | 1050 ± 90 |  | 
8 | Cn1c(-c2cccc(NC(=O)C(=O)Nc3ccc(I)cc3)c2)c(I)c2cc(C(=O)O)c(O)cc21 [11a-8, 6-hydroxy-3-iodo-2-(3-(2-((4-iodophenyl)amino)-2-oxoacetamido)phenyl)-1-methyl-1H-indole-5-carboxylic acid] | 1200 ± 210 |  | 
9 | Cn1c(-c2cccc(NC(=O)C(=O)Nc3ccccc3-c3nc4ccccc4[nH]3)c2)c(I)c2cc(C(=O)O)c(O)cc21 [11a-9, 2-(3-(2-((2-(1H-benzo[d]imidazol-2-yl)phenyl)amino)-2-oxoacetamido)phenyl)-6-hydroxy-3-iodo-1-methyl-1H-indole-5-carboxylic acid] | 1250 ± 60 |  | 
10 | Cn1c(-c2cccc(NC(=O)C(=O)Nc3cccc(Cl)c3)c2)c(I)c2cc(C(=O)O)c(O)cc21 [11a-11, 2-(3-(2-((3-chlorophenyl)amino)-2-oxoacetamido)phenyl)-6-hydroxy-3-iodo-1-methyl-1H-indole-5-carboxylic acid] | 1460 ± 450 |  | 
11 | Cn1c(-c2cccc(NC(=O)C(=O)Nc3ccc(-n4ccnc4)cc3)c2)c(I)c2cc(C(=O)O)c(O)cc21 [11a-12, 2-(3-(2-((4-(1H-imidazol-1-yl)phenyl)amino)-2-oxoacetamido)phenyl)-6-hydroxy-3-iodo-1-methyl-1H-indole-5-carboxylic acid] | 1490 ± 150 |  | 
12 | Cn1c(-c2cccc(NC(=O)C(=O)Nc3ccc(Cl)c(C(F)(F)F)c3)c2)c(I)c2cc(C(=O)O)c(O)cc21 [11a-13, 2-(3-(2-((4-chloro-3-(trifluoromethyl)phenyl)amino)-2-oxoacetamido)phenyl)-6-hydroxy-3-iodo-1-methyl-1H-indole-5-carboxylic acid] | 1760 ± 80 |  | 
13 | Cn1c(-c2cccc(NC(=O)C(=O)Nc3nnc(-c4ccccc4)s3)c2)c(I)c2cc(C(=O)O)c(O)cc21 [11a-14, 6-hydroxy-3-iodo-1-methyl-2-(3-(2-oxo-2-((5-phenyl-1,3,4-thiadiazol-2-yl)amino)acetamido)phenyl)-1H-indole-5-carboxylic acid] | 1790 ± 150 |  | 
14 | Cn1c(-c2cccc(NC(=O)C(=O)Nc3ccc(F)cc3)c2)c(I)c2cc(C(=O)O)c(O)cc21 [11a-15, 2-(3-(2-((4-fluorophenyl)amino)-2-oxoacetamido)phenyl)-6-hydroxy-3-iodo-1-methyl-1H-indole-5-carboxylic acid] | 1840 ± 90 |  | 
15 | Cn1c(-c2cccc(NC(=O)C(=O)Nc3nccs3)c2)c(I)c2cc(C(=O)O)c(O)cc21 [11a-16, 6-hydroxy-3-iodo-1-methyl-2-(3-(2-oxo-2-(thiazol-2-ylamino)acetamido)phenyl)-1H-indole-5-carboxylic acid] | 2310 ± 280 |  | 
16 | Cn1c(-c2cccc(NC(=O)C(=O)Nc3cccc(OC(F)(F)F)c3)c2)c(I)c2cc(C(=O)O)c(O)cc21 [11a-17, 6-hydroxy-3-iodo-1-methyl-2-(3-(2-oxo-2-((3-(trifluoromethoxy)phenyl)amino)acetamido)phenyl)-1H-indole-5-carboxylic acid] | 2390 ± 150 |  | 
17 | Cn1c(-c2cccc(NC(=O)C(=O)Nc3cccc(Br)c3)c2)c(I)c2cc(C(=O)O)c(O)cc21 [11a-18, 2-(3-(2-((3-bromophenyl)amino)-2-oxoacetamido)phenyl)-6-hydroxy-3-iodo-1-methyl-1H-indole-5-carboxylic acid] | 2730 ± 550 |  | 
18 | Cn1c(-c2cccc(NC(=O)C(=O)Nc3cccc(F)c3)c2)c(I)c2cc(C(=O)O)c(O)cc21 [11a-19, 2-(3-(2-((3-fluorophenyl)amino)-2-oxoacetamido)phenyl)-6-hydroxy-3-iodo-1-methyl-1H-indole-5-carboxylic acid] | 4660 ± 500 |  | 
19 | Cn1c(-c2cccc(NC(=O)C(=O)Nc3cccc(I)c3)c2)c(I)c2cc(C(=O)O)c(O)cc21 [11a-20, 6-hydroxy-3-iodo-2-(3-(2-((3-iodophenyl)amino)-2-oxoacetamido)phenyl)-1-methyl-1H-indole-5-carboxylic acid] | 5420 ± 1010 |  | 
20 | Cn1c(-c2cccc(NC(=O)C(=O)Nc3ccc(-c4ccc(C#N)cc4)cc3)c2)c(I)c2cc(C(=O)O)c(O)cc21 [11a-21, 2-(3-(2-((4′-cyano-[1,1′-biphenyl]-4-yl)amino)-2-oxoacetamido)phenyl)-6-hydroxy-3-iodo-1-methyl-1H-indole-5-carboxylic acid] | 220 ± 10 |  | 
21 | Cn1c(-c2cccc(NC(=O)C(=O)Nc3ccc(-c4cccc(C#N)c4)cc3)c2)c(I)c2cc(C(=O)O)c(O)cc21 [11a-22, 2-(3-(2-((3′-cyano-[1,1′-biphenyl]-4-yl)amino)-2-oxoacetamido)phenyl)-6-hydroxy-3-iodo-1-methyl-1H-indole-5-carboxylic acid] | 310 ± 20 |  | 
22 | Cn1c(-c2cccc(NC(=O)C(=O)Nc3ccccc3-c3ccc(CO)o3)c2)c(I)c2cc(C(=O)O)c(O)cc21 [11a-23, 6-hydroxy-2-(3-(2-((2-(5-(hydroxymethyl)furan-2-yl)phenyl)amino)-2-oxoacetamido)phenyl)-3-iodo-1-methyl-1H-indole-5-carboxylic acid] | 370 ± 10 |  | 
23 | Cn1c(-c2cccc(NC(=O)C(=O)Nc3cccc(-c4ccco4)c3)c2)c(I)c2cc(C(=O)O)c(O)cc21 [11a-24, 2-(3-(2-((3-(furan-2-yl)phenyl)amino)-2-oxoacetamido)phenyl)-6-hydroxy-3-iodo-1-methyl-1H-indole-5-carboxylic acid] | 380 ± 10 |  | 
24 | Cn1c(-c2cccc(NC(=O)C(=O)Nc3cccc(-c4ccc(C#N)cc4)c3)c2)c(I)c2cc(C(=O)O)c(O)cc21 [11a-25, 2-(3-(2-((4′-cyano-[1,1′-biphenyl]-3-yl)amino)-2-oxoacetamido)phenyl)-6-hydroxy-3-iodo-1-methyl-1H-indole-5-carboxylic acid] | 420 ± 20 |  | 
25 | Cn1c(-c2cccc(NC(=O)C(=O)Nc3cccc(-c4ccsc4)c3)c2)c(I)c2cc(C(=O)O)c(O)cc21 [11a-26, 6-hydroxy-3-iodo-1-methyl-2-(3-(2-oxo-2-((3-(thiophen-3-yl)phenyl)amino)acetamido)phenyl)-1H-indole-5-carboxylic acid] | 630 ± 40 |  | 
26 | Cn1c(-c2cccc(NC(=O)CCC(=O)Nc3ccc(-c4ccsc4)cc3)c2)c(I)c2cc(C(=O)O)c(O)cc21 [11c-1, 6-hydroxy-3-iodo-1-methyl-2-(3-(4-oxo-4-((4-(thiophen-3-yl)phenyl)amino)butanamido)phenyl)-1H-indole-5-carboxylic acid] | 2300 |  | more than 10 times
27 | Cn1c(-c2cccc(NC(=O)CCC(=O)Nc3ccc(Oc4ccccc4)cc3)c2)c(I)c2cc(C(=O)O)c(O)cc21 [11c-2, 6-hydroxy-3-iodo-1-methyl-2-(3-(4-oxo-4-((4-phenoxyphenyl)amino)butanamido)phenyl)-1H-indole-5-carboxylic acid] | 3600 ± 300 |  | 
28 | Cn1c(-c2cccc(NC(=O)CCC(=O)Nc3ccc(OCc4ccccc4)c(Cl)c3)c2)c(I)c2cc(C(=O)O)c(O)cc21 [11c-3, 2-(3-(4-((4-(benzyloxy)-3-chlorophenyl)amino)-4-oxobutanamido)phenyl)-6-hydroxy-3-iodo-1-methyl-1H-indole-5-carboxylic acid] | 5000 ± 900 |  | 

Reference: US9522881B2, “Hydroxyindole carboxylic acid based inhibitors for oncogenic Src homology-2 domain containing protein tyrosine phosphatase-2 (SHP2)” (Indiana University Research and Technology Corporation, priority 2013, dated 2016)
